Measured values from PubChem BioAssay AID1845212 (Molecular Pharmacology Branch, DTP, NCI, 2023).
Activity calls are given as the source filed them. Rule for the calls: active = viability on the fitted dose curve at most 10% of control; inactive = the rest.

Tested on: NCI-H719 tumor spheroids, viability
Test: Anticancer human tumor NCI-H719 cell line growth inhibition;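 for IC50: spheroids exposed to compounds for seven days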;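 for viability, T/C: spheroids exposed to compounds for seven days; percent viability relative to DMSO vehicle control as 100%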
Conditions: spheroids with HUVEC and MSC; for IC50: curve of first compound; for viability, T/C: stronger effect = lower value
How it was run: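 Complex tumor spheroids combined malignant cells with endothelial cells and mesenchymal stem cells. DNA-damaging drugs and DNA repair inhibitors were tested alone and in combination, at half-log dilutions down from clinical Cmax (top 10 microM if Cmax unknown), 0.25% DMSO final.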

[1] = second compound 1 µM, first compound 0.0316 µM
[2] = second compound 1 µM, first compound 0.1 µM
[3] = second compound 1 µM, first compound 0.316 µM
[4] = second compound 1 µM, first compound 1 µM
[5] = second compound 1 µM, first compound 3.16 µM
[6] = second compound 1 µM, first compound 10 µM
[7] = second compound 3.16 µM, first compound 0.0316 µM
[8] = second compound 3.16 µM, first compound 0.1 µM
[9] = second compound 3.16 µM, first compound 0.316 µM
[10] = second compound 3.16 µM, first compound 1 µM
[11] = second compound 3.16 µM, first compound 3.16 µM
[12] = second compound 3.16 µM, first compound 10 µM
[13] = second compound 10 µM, first compound 0.0316 µM
[14] = second compound 10 µM, first compound 0.1 µM
[15] = second compound 10 µM, first compound 0.316 µM
[16] = second compound 10 µM, first compound 1 µM
[17] = second compound 10 µM, first compound 3.16 µM
[18] = second compound 10 µM, first compound 10 µM
[19] = second compound 31.6 µM, first compound 0.0316 µM
[20] = second compound 31.6 µM, first compound 0.1 µM
[21] = second compound 31.6 µM, first compound 0.316 µM
[22] = second compound 31.6 µM, first compound 1 µM
[23] = second compound 31.6 µM, first compound 3.16 µM
[24] = second compound 31.6 µM, first compound 10 µM
[25] = second compound 100 µM, first compound 0.0316 µM
[26] = second compound 100 µM, first compound 0.1 µM
[27] = second compound 100 µM, first compound 0.316 µM
[28] = second compound 100 µM, first compound 1 µM
[29] = second compound 100 µM, first compound 3.16 µM
[30] = second compound 100 µM, first compound 10 µM

Compound | IC50 (second compound 1 µM) | IC50 (second compound 3.16 µM) | IC50 (second compound 10 µM) | IC50 (second compound 31.6 µM) | IC50 (second compound 100 µM) | viability, T/C [1] | viability, T/C [2] | viability, T/C [3] | viability, T/C [5] | viability, T/C [6] | viability, T/C [7] | viability, T/C [8] | viability, T/C [9] | viability, T/C [10] | viability, T/C [11] | viability, T/C [12] | viability, T/C [13] | viability, T/C [15] | viability, T/C [16] | viability, T/C [17] | also measured
Cc1cc(C)c(CNC(=O)c2cc(-c3ccc(CN4CCOCC4)cc3)cc3c2cnn3C2CCCC2)c(=O)[nH]1 + Cn1nnc2c(C(N)=O)ncn2c1=O | > 10 µM | > 10 µM | > 10 µM | > 10 µM | > 10 µM | 96.9% | 105% | 100% | 94% | 76.5% | 105% | 102% | 108% | 107% | 92.2% | 82.2% | 105% | 108% | 110% | 94.3% | outcome [4]: inactive; outcome [14]: inactive; viability, T/C [18]: 94.5%; viability, T/C [19]: 113%; viability, T/C [20]: 119%; viability, T/C [21]: 123%; viability, T/C [22]: 108%; viability, T/C [23]: 94.6%; viability, T/C [24]: 85.7%; viability, T/C [25]: 101%; viability, T/C [26]: 108%; viability, T/C [27]: 103%; viability, T/C [28]: 103%; viability, T/C [29]: 107%; viability, T/C [30]: 76.8%
[2H]c1nc(C)nc([2H])c1-c1cc(NC[C@@H](C)c2cccc3c(C(=O)NC)ccnc23)ncn1 + Cn1nnc2c(C(N)=O)ncn2c1=O | > 10 µM | > 10 µM | > 10 µM | > 10 µM | > 10 µM | 93.8% | 101% | 90.4% | 90.6% | 87.8% | 104% | 90.1% | 95.3% | 94.4% | 98.9% | 98.7% | 103% | 90.4% | 96.8% | 89.8% | viability, T/C [4]: 99.2%; viability, T/C [14]: 97%; viability, T/C [18]: 94.2%; viability, T/C [19]: 101%; viability, T/C [20]: 105%; viability, T/C [21]: 101%; viability, T/C [22]: 104%; viability, T/C [23]: 109%; viability, T/C [24]: 82.4%; viability, T/C [25]: 87.1%; viability, T/C [26]: 84.2%; viability, T/C [27]: 68.6%; viability, T/C [28]: 70.3%; viability, T/C [29]: 68.2%; viability, T/C [30]: 62.8%
